From patent US20250197374A1, “WEE1 DEGRADING COMPOUNDS AND USES THEREOF” (BRISTOL-MYERS SQUIBB COMPANY, priority 2023, published 2025)

Molecular target: T1, WEE1 (Homo sapiens, UniProt P30291+Q96SW2)
T1 construct: C-terminal ePL-tagged (DiscoverX, Fremont, CA) full-length WEE1 expression construct; expressed in transfected cells; host or cells: LentiX-HEK293T (Invitrogen), lentivirally transduced; the cells also over-express GSPT1-GN
Test: WEE1-ePL degradation assay (293T-LentiX, InCELL Hunter luminescence, 4 hr)
Format: cell-based
Conditions: for 293T-LentiX WEE1-ePL Degradation 4 hr YMin (%): lower limit of fit, % of DMSO control signal remaining; for DC50: LentiX-HEK293T cells expressing WEE1-ePL, 4 hr incubation, read-out: 293T-LentiX WEE1-ePL Degradation 4 hr EC50
Source text: To generate LentiX-WEE1-ePL-GSPT1-ND cells for the WEE1 degradation assay, LentiX-HEK293T (Invitrogen) were tranduced by lentivirus with a C-terminal ePL-tagged (DiscoverX, Fremont, CA) full-length WEE1 expression construct. A separate lentiviral construct was introduced to over-express a mutated form of GSPT1 (NP_002085), termed GSPT1-GN, which contains a G575N mutation and is further truncated in the first 158 amino acids. GSPT1-GN is functional but not degradable by Cereblon. Cells were selected and maintained in complete DMEM media (DMEM, 10% Heat Inactivated FBS, 400 μg/mL Geneticin, and 1 μg/mL puromycin at 37 C and 5% CO2). Cells were passaged every 3-4 days by reseeding 1×10^6 cells in a T150 flask.
Cells were dispensed into 384-well white plates (Corning #3570, NY) that were pre-spotted with compounds using an acoustic dispenser (Echo acoustic transfer system, Beckman Coulter Life Sciences, Carlsbad, CA) as a 10-point dose-response curve with a 3-fold dilution starting at either 1 uM or 10 uM and including a DMSO control. Twenty-five microliters of media containing 2500 cells for LentiX-oeWEE1-ePL was dispensed per well. Assay plates were incubated at 37° C. with 5% CO2 for four hours (WEE1) After incubation, 25 μL of the InCELL Hunter™ Detection Reagent Working Solution (DiscoverX, Fremont, CA) was added to each well and incubated at room temperature for 30 minutes protected from light. After 30 minutes, luminescence was read on a PHERAstar luminometer (Cary, NC).
To determine the half-maximal effective concentration (EC50) values for WEE1-ePL degradation, a four parameter logistic model was used: (Sigmoidal Dose-Response Model) (FIT=(A+((B−A)/1+((C/x)^D)))) where C is the inflection point (EC50), D is the Hill slope, and A and B are the low and high limits of the fit respectively). The lower limit of the fit (value A) is referred to as Ymin. […] The maximum limit constraint, Ymax, is similarly derived using DMSO control. The curves were processed and evaluated using Activity Base (IDBS, Alameda, CA) or using Dotmatics (Boston, MA).

T1 sequence (P30291 whole entry): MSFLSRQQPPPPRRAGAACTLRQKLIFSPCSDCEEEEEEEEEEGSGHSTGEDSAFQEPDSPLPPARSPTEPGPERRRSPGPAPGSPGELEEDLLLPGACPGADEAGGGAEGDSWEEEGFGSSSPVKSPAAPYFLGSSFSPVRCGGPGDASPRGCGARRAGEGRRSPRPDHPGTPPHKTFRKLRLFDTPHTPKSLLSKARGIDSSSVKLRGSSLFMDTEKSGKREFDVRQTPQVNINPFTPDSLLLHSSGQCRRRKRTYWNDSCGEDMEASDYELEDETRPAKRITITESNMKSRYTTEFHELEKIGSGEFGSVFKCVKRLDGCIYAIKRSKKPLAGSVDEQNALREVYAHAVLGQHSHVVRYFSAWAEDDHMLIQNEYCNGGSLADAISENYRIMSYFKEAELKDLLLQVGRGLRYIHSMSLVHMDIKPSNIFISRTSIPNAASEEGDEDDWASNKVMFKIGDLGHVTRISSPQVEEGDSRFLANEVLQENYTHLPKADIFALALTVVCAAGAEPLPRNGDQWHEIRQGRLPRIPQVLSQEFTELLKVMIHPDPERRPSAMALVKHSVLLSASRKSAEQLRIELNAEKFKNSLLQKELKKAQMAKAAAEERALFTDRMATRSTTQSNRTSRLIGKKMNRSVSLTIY
T1 sequence (Q96SW2 whole entry): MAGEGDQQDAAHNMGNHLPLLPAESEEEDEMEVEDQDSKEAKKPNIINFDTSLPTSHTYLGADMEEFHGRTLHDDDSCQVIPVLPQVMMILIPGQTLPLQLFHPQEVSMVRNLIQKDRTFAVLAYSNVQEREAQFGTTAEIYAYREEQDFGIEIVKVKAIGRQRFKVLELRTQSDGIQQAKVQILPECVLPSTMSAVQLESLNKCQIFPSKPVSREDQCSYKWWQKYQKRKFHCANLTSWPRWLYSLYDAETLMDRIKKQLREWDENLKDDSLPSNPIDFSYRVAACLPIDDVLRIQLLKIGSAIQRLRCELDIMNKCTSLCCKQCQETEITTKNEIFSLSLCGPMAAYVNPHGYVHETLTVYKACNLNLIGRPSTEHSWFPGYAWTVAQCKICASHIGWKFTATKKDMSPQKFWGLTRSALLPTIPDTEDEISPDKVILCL
T1 sequence (Q16531 whole entry partner): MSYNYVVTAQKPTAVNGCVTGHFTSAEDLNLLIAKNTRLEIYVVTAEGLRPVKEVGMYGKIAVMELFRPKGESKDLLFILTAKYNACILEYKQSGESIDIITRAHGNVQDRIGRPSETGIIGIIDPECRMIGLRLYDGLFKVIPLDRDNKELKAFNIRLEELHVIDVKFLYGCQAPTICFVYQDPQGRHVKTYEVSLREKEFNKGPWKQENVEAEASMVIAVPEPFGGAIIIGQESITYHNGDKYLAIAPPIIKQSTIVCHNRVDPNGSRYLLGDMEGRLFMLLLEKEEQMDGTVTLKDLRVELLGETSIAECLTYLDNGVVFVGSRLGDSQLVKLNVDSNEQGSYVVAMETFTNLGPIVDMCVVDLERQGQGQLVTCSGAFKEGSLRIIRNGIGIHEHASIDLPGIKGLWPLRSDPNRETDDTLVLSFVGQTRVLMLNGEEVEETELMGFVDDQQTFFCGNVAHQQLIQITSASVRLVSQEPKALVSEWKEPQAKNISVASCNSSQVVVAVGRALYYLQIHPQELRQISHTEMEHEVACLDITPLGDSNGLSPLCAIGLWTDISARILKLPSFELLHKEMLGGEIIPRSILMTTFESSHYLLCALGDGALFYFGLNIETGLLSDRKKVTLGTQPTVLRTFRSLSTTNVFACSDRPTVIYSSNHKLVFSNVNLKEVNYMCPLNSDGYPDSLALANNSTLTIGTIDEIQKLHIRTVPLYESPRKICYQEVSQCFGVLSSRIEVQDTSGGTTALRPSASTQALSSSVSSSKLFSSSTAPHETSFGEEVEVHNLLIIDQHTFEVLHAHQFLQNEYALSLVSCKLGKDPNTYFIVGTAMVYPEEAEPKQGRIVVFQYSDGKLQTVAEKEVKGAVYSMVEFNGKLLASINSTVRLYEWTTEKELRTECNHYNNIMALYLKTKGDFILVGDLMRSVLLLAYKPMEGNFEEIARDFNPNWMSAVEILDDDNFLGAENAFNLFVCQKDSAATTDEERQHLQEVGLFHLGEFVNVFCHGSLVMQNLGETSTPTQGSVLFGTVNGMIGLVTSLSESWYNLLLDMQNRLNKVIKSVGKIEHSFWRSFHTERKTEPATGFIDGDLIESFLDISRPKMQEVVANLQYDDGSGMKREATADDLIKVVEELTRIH

Compound | 293T-LentiX WEE1-ePL Degradation 4 hr YMin (%) | DC50
COC[C@@H]1CN(Cc2cc(F)c3cc(N4CCOCC4)ncc3c2)C[C@H]1Oc1ccc2c(c1)CN([C@H]1CCC(=O)NC1=O)C2=O [Example 49, (3S)-3-(5-{[(3S,4S)-1-{[5-fluoro-3-(morpholin-4-yl)isoquinolin-7-yl]methyl}-4-(methoxymethyl)pyrrolidin-3-yl]oxy}-1-oxo-2,3-dihydro-1H-isoindol-2-yl)piperidine-2,6-dione] | 24.5% | 2 nM
COC[C@@H]1CN(Cc2cc3ccc(N4CCN(C(C)=O)CC4)cc3c(F)n2)C[C@H]1Oc1ccc2c(c1)CN([C@H]1CCC(=O)NC1=O)C2=O [Example 124, (3S)-3-(5-{[(3S,4S)-1-{[7-(4-acetylpiperazin-1-yl)-1-fluoroisoquinolin-3-yl]methyl}-4-(methoxymethyl)pyrrolidin-3-yl]oxy}-1-oxo-2,3-dihydro-1H-isoindol-2-yl)piperidine-2,6-dione] | 25.4% | –
O=C1CC[C@H](N2Cc3cc(O[C@@H]4CN(Cc5cc(F)c6nc(C7CCOCC7)ccc6c5)C[C@H]4OCC4CC4)ccc3C2=O)C(=O)N1 [Example 125, (3S)-3-(5-{[(3R,4R)-4-(cyclopropyl-methoxy)-1-{[8-fluoro-2-(oxan-4-yl)quinolin-6-yl]methyl}pyrrolidin-3-yl]oxy}-1-oxo-2,3-dihydro-1H-isoindol-2-yl)piperidine-2,6-dione] | 29.2% | 4 nM
COC[C@@H]1CN(Cc2ccc3cc(N4CCOCC4)cnc3c2F)C[C@H]1Oc1ccc2c(c1)CN([C@H]1CCC(=O)NC1=O)C2=O [Example 101, (3S)-3-(5-{[(3S,4S)-1-{[8-fluoro-3-(morpholin-4-yl)quinolin-7-yl]methyl}-4-(methoxymethyl)pyrrolidin-3-yl]oxy}-1-oxo-2,3-dihydro-1H-isoindol-2-yl)piperidine-2,6-dione] | 33.0% | 3 nM
COC[C@@H]1CN(Cc2cc(F)c3nc(C)c(N4CCOCC4)cc3c2)C[C@H]1Oc1ccc2c(c1)CN([C@H]1CCC(=O)NC1=O)C2=O [Example 100, (3S)-3-(5-{[(3S,4S)-1-{[8-fluoro-2-methyl-3-(morpholin-4-yl)quinolin-6-yl]methyl}-4-(methoxymethyl)pyrrolidin-3-yl]oxy}-1-oxo-2,3-dihydro-1H-isoindol-2-yl)piperidine-2,6-dione] | 24.6% | 1 nM
COC[C@@H]1CN(Cc2ccc3ncc(N4CCOCC4)cc3c2F)C[C@H]1Oc1ccc2c(c1)CN([C@H]1CCC(=O)NC1=O)C2=O [Example 31, (3S)-3-(5-{[(3S,4S)-1-{[5-fluoro-3-(morpholin-4-yl)quinolin-6-yl]methyl}-4-(methoxymethyl)pyrrolidin-3-yl]oxy}-1-oxo-2,3-dihydro-1H-isoindol-2-yl)piperidine-2,6-dione] | 20.1% | –
COC[C@@H]1CN(Cc2ccc3nc(N4CCN(C(C)=O)C5(COC5)C4)ncc3c2)C[C@H]1Oc1ccc2c(c1)CN([C@H]1CCC(=O)NC1=O)C2=O [Example 95, (3S)-3-(5-{[(3S,4S)-1-[(2-{5-acetyl-2-oxa-5,8-diazaspiro[3.5]nonan-8-yl}quinazolin-6-yl)methyl]-4-(methoxymethyl)pyrrolidin-3-yl]oxy}-1-oxo-2,3-dihydro-1H-isoindol-2-yl)piperidine-2,6-dione] | 20.9% | 2 nM

Now from value to compound:

293T-LentiX WEE1-ePL Degradation 4 hr YMin (%) | DC50 | Compound
90.0% | – | Cc1cc([C@@H]2CN(Cc3cc(F)c4nc(C5CCOCC5)ccc4c3)C[C@H]2Oc2ccc3c(c2)CN([C@H]2CCC(=O)NC2=O)C3=O)ccn1 (relative stereo) [Example 126, (3S)-3-(5-{[(3S*,4R*)-1-{[8-fluoro-2-(oxan-4-yl)quinolin-6-yl]methyl}-4-(2-methylpyridin-4-yl)pyrrolidin-3-yl]oxy}-1-oxo-2,3-dihydro-1H-isoindol-2-yl)piperidine-2,6-dione]
100.0% | – | CC(C)(C)C[C@@H]1CN(Cc2cc(F)c3nc(C4CCOCC4)ccc3c2)C[C@H]1Oc1ccc2c(c1)CN([C@H]1CCC(=O)NC1=O)C2=O (relative stereo) [Example 131, (3S)-3-(5-{[(3S*,4R*)-4-(2,2-dimethylpropyl)-1-{[8-fluoro-2-(oxan-4-yl)quinolin-6-yl]methyl}pyrrolidin-3-yl]oxy}-1-oxo-2,3-dihydro-1H-isoindol-2-yl)piperidine-2,6-dione]
44.9% | 5 nM | CC(C)O[C@@H]1CN(Cc2cc(F)c3nc(C4CCOCC4)ccc3c2)C[C@H]1Oc1ccc2c(c1)CN([C@H]1CCC(=O)NC1=O)C2=O [Example 132, (3S)-3-(5-{[(3R,4R)-1-{[8-fluoro-2-(oxan-4-yl)quinolin-6-yl]methyl}-4-(propan-2-yloxy)pyrrolidin-3-yl]oxy}-1-oxo-2,3-dihydro-1H-isoindol-2-yl)piperidine-2,6-dione]
82.2% | – | O=C1CCC(N2Cc3cc(O[C@H]4CN(Cc5cc(F)c6nc(C7CCOCC7)ccc6c5)C[C@@H]4OC4COC4)ccc3C2=O)C(=O)N1 (relative stereo) [Example 152, rel-3-(5-(((3S,4S)-1-((8-fluoro-2-(tetrahydro-2H-pyran-4-yl)quinolin-6-yl)methyl)-4-(oxetan-3-yloxy)pyrrolidin-3-yl)oxy)-1-oxoisoindolin-2-yl)piperidine-2,6-dione]
58.0% | 70 nM | O=C1CCC(N2Cc3cc(O[C@@H]4CN(Cc5cc(F)c6nc(C7CCOCC7)ccc6c5)C[C@H]4OC4COC4)ccc3C2=O)C(=O)N1 (relative stereo) [Example 133, rel-3-(5-(((3R,4R)-1-((8-fluoro-2-(tetrahydro-2H-pyran-4-yl)quinolin-6-yl)methyl)-4-(oxetan-3-yloxy)pyrrolidin-3-yl)oxy)-1-oxoisoindolin-2-yl)piperidine-2,6-dione]
48.5% | 10 nM | CC(C)(C)C[C@H]1CN(Cc2cc(F)c3nc(C4CCOCC4)ccc3c2)C[C@@H]1Oc1ccc2c(c1)CN([C@H]1CCC(=O)NC1=O)C2=O (relative stereo) [Example 150, (3S)-3-(5-{[(3R*,4S*)-4-(2,2-dimethylpropyl)-1-{[8-fluoro-2-(oxan-4-yl)quinolin-6-yl]methyl}pyrrolidin-3-yl]oxy}-1-oxo-2,3-dihydro-1H-isoindol-2-yl)piperidine-2,6-dione]
22.4% | 11 nM | Cc1cc([C@H]2CN(Cc3cc(F)c4nc(C5CCOCC5)ccc4c3)C[C@@H]2Oc2ccc3c(c2)CN([C@H]2CCC(=O)NC2=O)C3=O)ccn1 (relative stereo) [Example 151, (3S)-3-(5-{[(3R*,4S*)-1-{[8-fluoro-2-(oxan-4-yl)quinolin-6-yl]methyl}-4-(2-methylpyridin-4-yl)pyrrolidin-3-yl]oxy}-1-oxo-2,3-dihydro-1H-isoindol-2-yl)piperidine-2,6-dione]
21.4% | 3 nM | COC[C@@H]1CN(Cc2cc(F)c3nc(C4CCN(C5COC5)CC4)ncc3c2)C[C@H]1Oc1ccc2c(c1)CN([C@H]1CCC(=O)NC1=O)C2=O [Example 144, (3S)-3-(5-{[(3S,4S)-1-({8-fluoro-2-[1-(oxetan-3-yl)piperidin-4-yl]quinazolin-6-yl}methyl)-4-(methoxymethyl)pyrrolidin-3-yl]oxy}-1-oxo-2,3-dihydro-1H-isoindol-2-yl)piperidine-2,6-dione]
